Data taken from US20110230433A1, “COMPOSITIONS AND METHODS FOR TREATMENT OF CANCER” (UNIVERSITY OF WASHINGTON, priority 2010, published 2011).

What was measured:
HCT116 = assay: Viability after 48 hr culture with analog, crystal violet staining; format: cell-based, human; conditions: HCT116 (mismatch repair deficient)
Method: (§1) The concentration of each analog used in the serial transfer experiments can be 50% less than the highest dose at which there is no reduction in viability. Analogs that fail to be toxic can be used at 100 μM.
(§2) In Table 2, mismatch repair proficient and deficient cell lines were assayed for viability after growing for 48 hr with the indicated analogs in nM to mM concentrations.

SW480 = assay: as above; format: cell-based, human; conditions: SW480 (mismatch repair proficient)
Method: as §1, §2

E. coli = E. coli lacking repair of 8-OH-dG; cited from earlier work
DNA = conditions: cited from earlier work
dG = conditions: cited from earlier work
DNA polymerases = conditions: copying past site specific residues by DNA polymerases in vitro; cited from earlier work
HIV = HIV in tissue culture; cited from earlier work
[1] = system: human cells deficient in O^6-methyl transferase; conditions: compared to correct base-pairing with cytidine; cited from earlier work

SMILES	Highest dose without decreased viability (HCT116)	Highest dose without decreased viability (SW480)	also measured
Nc1ncc2[nH]cnc2n1 [2′-aminopurine, 2-Aminopurine]	0.00033 mM	0.00033 mM	
Nc1ncc2ncn([C@H]3C[C@H](O)[C@@H](CO)O3)c2n1 [2′-deoxyaminopurine, 2-Amino-9-(β-D-2′-deoxyribfuranosyl)purine]	>3.3 mM	>3.3 mM	
OC[C@H]1O[C@@H](n2cnc3c(O)ncnc32)C[C@@H]1O [2′-deoxyinosine]	>3.3 mM	>3.3 mM	
Nc1nc(=O)n([C@H]2C[C@H](O)[C@@H](CO)O2)cc1O [5-hydroxy-2′-deoxycytidine]	0.03 mM	0.3 mM	
Nc1nc2c(nc(O)n2[C@H]2C[C@H](O)[C@@H](CO)O2)c(=O)[nH]1 [8-OH-dG, 8-hydroxy deoxyguanosine]			increase in mutagenesis (E. coli): 1000 fold
CCN(N=O)C(N)=O [ENU, ethylnitrosourea, reference compound]	1.1 mg/mL	0.6 mg/mL	
OC[C@H]1O[C@@H](n2cnc3c2ncn2ccnc32)C[C@@H]1O [Etheno-dA, 1,N6-etheno dA]			frequency of non-complementary base-pairs (DNA): approximately 10%
O=c1n([C@H]2C[C@H](O)[C@@H](CO)O2)ccc2nccn12 [Etheno-dC, N^3,4-etheno dC]			frequency of non-complementary base-pairs (DNA): approximately 10%
O=c1[nH]c2nccn2c2c1ncn2C1C[C@H](O)[C@@H](CO)O1 (some centres unmarked) [Etheno-dG, N^2,3-etheno dG]			frequency of non-complementary base-pairs (DNA): approximately 10%
NC1=NC(=O)N([C@H]2C[C@H](O)[C@@H](CO)O2)CN1 [KP-1212, reference compound]	3.3 mM	3.3 mM	
CCOc1nc(=O)n([C@H]2C[C@H](O)[C@@H](CO)O2)cc1C [O^4-ethyl-2′-deoxythymidine]	0.33 mM	>3.3 mM	frequency of mispairing with dG (dG): approximately 25%
COc1nc(=O)n([C@H]2C[C@H](O)[C@@H](CO)O2)cc1C [O^4-methyl-2′-deoxythymidine]	>3.3 mM	>3.3 mM	frequency of mispairing with dG (dG): approximately 25%; increase in mis-incorporation (DNA polymerases): 20%; induction of lethal mutagenesis (HIV): induce lethal mutagenesis of HIV
CCOc1nc(N)nc2c1ncn2[C@H]1C[C@H](O)[C@@H](CO)O1 [O^6-ethyl dG]			frequency of base-pairing with thymidine [1]: 11%
COc1nc(N)nc2c1ncn2[C@H]1C[C@H](O)[C@@H](CO)O1 [O^6-methyl dG]			frequency of base-pairing with thymidine [1]: 19%
